Values quoted from earlier work, collected in PMC6105163, “Abaloparatide Exerts Bone Anabolic Effects with Less Stimulation of Bone Resorption-Related Factors: A Comparison with Teriparatide” (Calcified Tissue International, 2018).
Ends that are not written are not given here.

Assays:
bone mass = conditions: cited from earlier work; for effect of continuous infusion: in vivo; for bone mass, intermittent administration: ref [2], [3]
Source text: Parathyroid hormone (PTH) and PTH-related protein (PTHrP) have a common G protein-coupled receptor, PTH1R, which plays a pivotal role in bone turnover and calcium homeostasis.

cAMP and PKC = conditions: ref [24]; cited from earlier work
Source text: (§1) There is another possibility that the two peptides could show the different activity on protein kinase C (PKC). PKC is the downstream signal of PTH1R and is involved in the stimulation of bone resorption-related factors and bone catabolism. In fact, ostabolin, an amidated form of human PTH(1–31), differs from PTH(1–34) in PKC activation.

bone turnover = conditions: preclinical study, ref [25], cited from earlier work
Source text: as §1

Row | Substance | effect of continuous infusion (bone mass) | bone mass, intermittent administration (bone mass) | cAMP accumulation and PKC activation (cAMP and PKC) | bone resorption (bone turnover; vs PTH(1–34)) | bone formation (bone turnover)
1 | PTH: Parathyroid hormone | caused bone loss and hypercalcemia | increased bone mass |  |  | 
2 | PTHrP: PTH-related protein | caused bone loss and hypercalcemia | increased bone mass |  |  | 
3 | ostabolin: an amidated form of human PTH(1–31) (SVSEIQLMHNLGKHLNSMERVEWLRKKLQDV-NH2; UniProt P01270 32-62, looked up, fragment) |  |  | cAMP accumulation without activating PKC | less effect on bone resorption than PTH(1–34) | stimulated bone formation similar to PTH(1–34)
